Test results from patent US8697356B2, “Single-molecule-format probe and utilization thereof” (National Institute of Advanced Industrial Science and …, priority 2008, dated 2014).

Assays:
Format in all cases: cell-based, African green monkey
cytosolic Ca^2+ [1] = test: Retention of Ca^2+ levels after wash-out, COS-7 cells carrying pCPG (Example 9); conditions: CPG; 20 minutes stimulation; thapsigargin or cyproheptadine added to 0.5 mM histamine or ATP; 2 μM ionomycin
Description: Retention of cytosolic calcium Ca^2+ levels in response to an external stimulus were monitored on the basis of the luminescence intensities from COS-7 cells carrying pCPG.
The cells were washed twice with PBS after ligand stimulation, and harvested by trypsinization and centrifugation. This wash-out terminates the external stimulation of ligands for elevating cytosolic Ca^2+ levels. The cells were resuspended with a 40 mL substrate buffer carrying coelenterazine, and then transferred to a test tube to determine the luminescence with a luminometer (Minilumat LB9506).

COS-7 cells = test: Saturation rate of substrate in COS-7 cells carrying pCPG-ctrl (Example 13); conditions: HBSS buffer
Description: A reaction rate of coelenterazine saturation in COS-7 cells was monitored. […] The cells on the plate were washed once with HBSS buffer and were saturated with 500 μL HBSS buffer. The luminescence variances after coelenterazine addition were monitored with a bioluminescence plate reader (Mithras LB 940; Berthold).

cytosolic Ca^2+ [2] = test: Ca^2+ dynamics in COS-7 cells transfected with pCPG or pSMG (Example 8); conditions: 1 mM histamine, CPG
From the text: The dynamics of cytosolic Ca^2+ in COS-7 cells were monitored in the cells transfected with pCPG and in the cells transfected with SMG shown in FIG. 14 as a control. The free Ca^2+ was a representative second messenger in living mammalian cells. […] The outer terminals were respectively fused with M13 peptide and calmodulin. SMG is different from CPG in that calmodulin and M13 peptide are linked between N- and C-terminal fragments. That is, the luciferases are not circularly permutated in SMG.
As in Example 2, COS-7 cells cultured in a black, glass-bottom plate (24-well) were transfected with pCPG or pSMG, and stocked in a cell incubator for 16 hours. The cells were saturated with a 300 μL Hank's balanced salt solution (HBSS) buffer containing coelenterazine.

cytoplasm Ca^2+ = test: Ligand affinity of CPG and CPG-ctrl, histamine-triggered Ca^2+ (Example 12)
From the text: First, GLuc was dissected at Q105, and the original N- and C-terminals of the fragments were circularly permutated with a 10 GS linker. The outer terminals were respectively fused with M13 and CaM to form CPG. CPG-ctrl which is different from CPG only in that GLuc was not circularly permutated was parallelly formed as a control probe of CPG by the use of the same components as CPG (FIG. 20).
As in Example 2, COS-7 cells cultured in a black, glass-bottom plate (24-well) were transiently transfected with pCPG or pCPG-ctrl, and stocked in a cell incubator for 16 hours. The cells were saturated with a 300 μL HBSS buffer containing coelenterazine.

Nc1ncnc2c1ncn2[C@@H]1O[C@H](COP(=O)(O)OP(=O)(O)OP(=O)(O)O)[C@@H](O)[C@H]1O [ATP]
cytosolic Ca^2+ levels (luminescence) after wash-out (cytosolic Ca^2+ [1]): quickly decreased

C[C@H](CCC(=O)O)C[C@H](C)C[C@H](C)C(=O)/C=C(\O)[C@H](C)C[C@H](C)C/C=C/[C@@H](C)[C@@H](O)[C@@H](C)[C@@H](O)C[C@@H]1CC[C@@](C)([C@H]2CC[C@@](C)([C@@H](C)O)O2)O1 [Ionomycin, ionomycin]
cytosolic Ca^2+ levels (luminescence) after wash-out (cytosolic Ca^2+ [1]): retaining certain levels

Oc1ccc(Cc2nc3c(Cc4ccccc4)nc(-c4ccc(O)cc4)cn3c2O)cc1 [coelenterazine]
time in which the COS-7 cells were saturated (COS-7 cells): 8.5 min

NCCc1c[nH]cn1 [histamine]
time to reach plateau of luminescence (cytosolic Ca^2+ [2]): ~10 min | concentration from which CPG started sensing (cytoplasm Ca^2+): 0.25 mM | time to reach plateau of luminescence (cytoplasm Ca^2+; 1 mM histamine, CPG): ~10 min

C/C=C(/C)C(=O)O[C@H]1C(C)=C2[C@H]([C@@H]1OC(=O)CCCCCCC)[C@@](C)(OC(C)=O)C[C@H](OC(=O)CCC)[C@@]1(O)[C@H]2OC(=O)[C@@]1(C)O [thapsigargin]
cytosolic Ca^2+ levels (luminescence) after wash-out (cytosolic Ca^2+ [1]): retained
